Source: patent publication US20240240126A1, “Microfluidic Barcode-Like Cell Sensor For Microscope-Free Quantitative Detection Of Small Amount Of Cells” (Hong Kong Baptist University, priority 2021, published 2024)
Values after ≈ are worked out from the molar mass of the structure shown.

How the values were obtained:
E. coli [1] = conditions: CLSI reference range; cited from earlier work
S. aureus [2] = assay: Broth microdilution AST; assay type: cell-based, Staphylococcus aureus (ATCC 29213)
Procedure: (§1) To conduct an AST on the PP-based AST chip, bacteria were pre-activated inside an incubator for 15 minutes at 37° C. before use. At the beginning of a test, the bacteria are injected through Inlet 3; the injection of the bacteria was monitored under the fluorescence microscope (FIG. 24A). After the bacteria were inoculated into the cultivation chambers, antibiotic-doped media and media alone are injected into inlet 1 and inlet 2 at a rate of 1 μL/minute, respectively (FIG. 24B). The AST chip was then incubated on a thermostat platform at 37° C. for 2 hours. To assess AMR, the bacteria inside the culture chambers of the PP AST chip were flushed into the barcode cell sensor at a rate of 1 μL/minute. […] For comparison, AST was also performed using the traditional broth microdilution method as shown in FIG. 27; the MIC values of the bacteria were assessed as the lowest concentration of antibiotics with no visible growth of bacteria.
(§2) The broth microdilution (BMD) testing of the samples was performed exactly the same according to the approved standard from CLSI and the procedures described in Nature Protocol. […] To assess the MIC values for the samples, the microplates were examined visually and the lowest concentration of the antibiotic which prevents visible growth of the bacteria was recorded as the MIC value of that sample.

S. aureus [3] = conditions: CLSI reference range; cited from earlier work
E. coli [4] = assay: Broth microdilution AST; assay type: cell-based, Escherichia coli (ATCC 25922)
Procedure: as §1, §2

[5] = tested on: identified isolates (isolates 1-8); assay: AST of the identified drinking water isolates, overall statement; assay type: cell-based; conditions: all identified isolates 1-8
Procedure: (§3) The broth microdilution (BMD) testing of the samples was performed exactly the same according to the approved standard from CLSI and the procedures described in Nature Protocol. To perform the BMD test, both LB broth medium and the antibiotics were added into the 96-wells microplate. By using a two-fold dilution, a concentration gradient of the antibiotic is generated from 128 μg/mL to 0.125 μg/mL. The bacteria isolates identified inside the samples have been enriched under 37° C. for 8-12 hrs in order to achieve 5×10^6 CFU/mL before the test, 10 uL of the bacterial suspension was inoculated into the broth to achieve a final concentration of bacteria in 5×10^5 CFU/mL. The inoculated microplates were incubated at 37° C. for 16-20 hrs for further inspection. To assess the MIC values for the samples, the microplates were examined visually and the lowest concentration of the antibiotic which prevents visible growth of the bacteria was recorded as the MIC value of that sample. Meanwhile, Mueller Hinton broth was also used to perform the BMD for cross checking purpose; both of the AST results are consistence with the MIC quality control range recommended by CLSI.
(§4) According to the AST results of the present disclosure, all those identified isolates (isolates 1-8) have shown susceptibility to Gentamicin where all of them are resistant to Ampicillin at the same time. […]

S. aureus [6] = assay: AST with the present barcode cell sensor (PP microfluidic AST chip); assay type: cell-based, Staphylococcus aureus (ATCC 29213)
Procedure: To conduct an AST on the PP-based AST chip, bacteria were pre-activated inside an incubator for 15 minutes at 37° C. before use. At the beginning of a test, the bacteria are injected through Inlet 3; the injection of the bacteria was monitored under the fluorescence microscope (FIG. 24A). After the bacteria were inoculated into the cultivation chambers, antibiotic-doped media and media alone are injected into inlet 1 and inlet 2 at a rate of 1 μL/minute, respectively (FIG. 24B). The AST chip was then incubated on a thermostat platform at 37° C. for 2 hours. To assess AMR, the bacteria inside the culture chambers of the PP AST chip were flushed into the barcode cell sensor at a rate of 1 μL/minute. Gram staining agent was used during the flushing process to make bacteria inside the barcode cell sensor visible be captured by a cell phone camera. For comparison, AST was also performed using the traditional broth microdilution method as shown in FIG. 27; the MIC values of the bacteria were assessed as the lowest concentration of antibiotics with no visible growth of bacteria.

mixed bacteria sample = assay: Broth microdilution AST of mixed bacteria sample; assay type: cell-based
Procedure: as §3, §4

Isolate 8 = assay: Broth microdilution AST of drinking water isolate; assay type: cell-based, Staphylococcus capitis; parameters: key: R stands for resistant; conditions: Isolate 8 from drinking water samples
Procedure: (§5) All tested samples were collected between June 2019 to November 2019 according to the guidelines from ISO 18593:2018 Microbiology of the food chain—Horizontal methods for surface sampling. Also, all of the samples were collected from the drinking fountains in government venues and university facilities, at ten different locations. As said, the surface of the outlet for the drinking fountains was tested by swabbing. In simple words, the surfaces of the drinking fountain's outlet were rubbed by a single use sterilize cotton swab and swished into the Lysogeny broth (LB) broth solution for 1 minute to prepare the sample solutions. Collected samples were kept at 4° C. during the transportation and enriched for 12-14 hours under 37° C. After the enrichment for bacteria, the sample suspensions were spread and streaked onto the LB agar for further bacterial isolation and AST uses. […] If an ID is needed, dilution plating can be used. Besides, antifungals and algal inhibitors can also be added into these samples to against and inhibit the growth of fungi, yeast, and algae.
(§6) All tested samples were collected from drinking fountains at ten different locations in various government venues and university facilities. Sample containers were kept sterile before use in sample collection; the collected samples were kept at 4° C. and analyzed within 24 hours of collection. Sample collection was conducted 3 times for each sampling site and the antimicrobial susceptibility of each sample was tested 3 times. (FIG. 5) Bacterial identification for the real samples was made through the use of Matrix-Assisted Laser Desorption Ionization Time of Flight Imaging Mass Spectrometry (MALDI-TOF IMS). 1 uL of the sample was pipetted onto an Indium tin oxide (ITO) coated glass slide and allowed to dry on a hotplate; the ITO slide with bacteria was then analyzed by MALDI-TOF IMS immediately following matrix application. (FIG. 6, Table 2)
as §3
(§7) Based on the findings in the present disclosure, multiple bacterial species have been recognized in the testing samples, including bacterial species that have the potential to form biofilm and colonize on the surface of the water dispenser (Table 2). Traditional broth microdilution AST was also performed to verify the AMR assessment results of the present sensor according to the approved standard from CLSI (FIGS. 27A and 27B, Table 4). […] As AMR microbes can exist in the environment all around us, close enough to come into contact with in daily life, they may pose a significant threat to the effective treatment of bacterial infections in the near future if no action is taken. […]

Isolate 3 = assay: Broth microdilution AST of drinking water isolate; assay type: cell-based, Staphylococcus capitis; parameters: key: R stands for resistant; conditions: Isolate 3 from drinking water samples
Procedure: as §5, §6, §3, §7

Isolate 4 = assay: Broth microdilution AST of drinking water isolate; assay type: cell-based, Staphylococcus capitis; parameters: key: R stands for resistant; conditions: Isolate 4 from drinking water samples
Procedure: as §5, §6, §3, §7

Isolate 1 = assay: Broth microdilution AST of drinking water isolate; assay type: cell-based, Staphylococcus epidermidis; parameters: key: R stands for resistant; conditions: Isolate 1 from drinking water samples
Procedure: as §5, §6
as §2, with “Protocol. To perform the BMD test, both LB broth medium and the antibiotics were added into the 96-wells microplate. By using a two-fold dilution, a concentration gradient of the antibiotic is generated from 128 μg/mL to 0.125 μg/mL.” for “Protocol.”, “sample. […]” for “sample.”

Isolate 5 = assay: Broth microdilution AST of drinking water isolate; assay type: cell-based, Staphylococcus epidermidis; parameters: key: R stands for resistant; conditions: Isolate 5 from drinking water samples
Procedure: as §5, §6
as §2, with “Protocol. To perform the BMD test, both LB broth medium and the antibiotics were added into the 96-wells microplate. By using a two-fold dilution, a concentration gradient of the antibiotic is generated from 128 μg/mL to 0.125 μg/mL.” for “Protocol.”, “sample. […]” for “sample.”

Isolate 6 = assay: Broth microdilution AST of drinking water isolate; assay type: cell-based, Citrobacter youngae; parameters: key: R stands for resistant; conditions: Isolate 6 from drinking water samples
Procedure: as §5, §6, §3, §7

Isolate 2 = assay: Broth microdilution AST of drinking water isolate; assay type: cell-based, Citrobacter youngae; parameters: key: R stands for resistant; conditions: Isolate 2 from drinking water samples
Procedure: as §5, §6, §3, §7

Isolate 7 = assay: Broth microdilution AST of drinking water isolate; assay type: cell-based, Citrobacter youngae; parameters: key: R stands for resistant; conditions: Isolate 7 from drinking water samples
Procedure: as §5, §6, §3, §7

E. coli [7] = assay: AST with the present barcode cell sensor (PP microfluidic AST chip); assay type: cell-based, Escherichia coli (ATCC 25922)
Procedure: as §1
As said, the bacteria samples have been flushed into the “barcode” cell sensor after 2 hours incubation, the accumulated bacteria bars with different lengths will be formed. […] Thus, the MIC value of the samples can be assessed by looking at the point (in a specific concentration of a given antibiotic) of the bacterial growth with significant differences using the comparison of the log [slope] values. […]

Gentamicin
MIC-CLSI (E. coli [1]): 0.25 to 1 µg/mL
MIC-Broth Microdilution (S. aureus [2]): 0.25 to 0.5 µg/mL
MIC-CLSI (S. aureus [3]): 0.12 to 1 µg/mL
MIC-Broth Microdilution (E. coli [4]): 0.25 to 0.5 µg/mL
AST result in words (susceptibility / resistance) [5]: susceptibility
MIC-"barcode" Chip (S. aureus [6]): 0.25 to 0.5 µg/mL
MIC value (mixed bacteria sample; FIG. 27A): 4 to 8 µg/mL
AST result (MIC) (Isolate 8): 16 to 32 µg/mL
AST result (MIC) (Isolate 3): 16 µg/mL
AST result (MIC) (Isolate 4): 16 to 32 µg/mL
AST result (MIC) (Isolate 1): 4 µg/mL
AST result (MIC) (Isolate 5): 4 µg/mL
AST result (MIC) (Isolate 6): 2 to 4 µg/mL
AST result (MIC) (Isolate 2): 16 µg/mL
AST result (MIC) (Isolate 7): 16 to 32 µg/mL

CC1(C)S[C@@H]2[C@H](NC(=O)[C@H](N)c3ccccc3)C(=O)N2[C@H]1C(=O)O [Ampicillin]
MIC-CLSI (E. coli [1]): 2 to 8 µg/mL
MIC-CLSI (S. aureus [3]): 0.5 to 2 µg/mL
AST result in words (susceptibility / resistance) [5]: resistant
AST result in words (mixed bacteria sample; FIG. 27B): resistance
AST result (MIC) (Isolate 8): R
AST result (MIC) (Isolate 3): R
AST result (MIC) (Isolate 4): R
AST result (MIC) (Isolate 1): R
AST result (MIC) (Isolate 5): R
AST result (MIC) (Isolate 6): R
AST result (MIC) (Isolate 2): R
AST result (MIC) (Isolate 7): R

CC[C@H]1OC(=O)[C@H](C)[C@@H](O[C@H]2C[C@@](C)(OC)[C@@H](O)[C@H](C)O2)[C@H](C)[C@@H](O[C@@H]2O[C@H](C)C[C@H](N(C)C)[C@H]2O)[C@](C)(O)C[C@@H](C)C(=O)[C@H](C)[C@@H](O)[C@]1(C)O [Erythromycin, erythromycin]
MIC-CLSI (E. coli [1]): Resistant
MIC (S. aureus [2]; Staphylococcus aureus): 0.25 to 1 µg/mL (≈ 0.341 to 1.36 µM)
MIC-CLSI (S. aureus [3]): 0.25 to 1 µg/mL
MIC-Broth Microdilution (E. coli [4]): Resistant
MIC-"barcode" Chip (E. coli [7]): Resistant
MIC (S. aureus [6]; Staphylococcus aureus): 0.4 to 0.6 µg/mL (≈ 0.545 to 0.818 µM)
